# Measurements published in patent US9045505B2, “Nitric oxide donors” (University of Otago, priority 2006, dated 2015).
# Columns and labels:
# [1] = system: liver mitochondria; assay: Metabolism of MitoSNAP by mitochondria (RP-HPLC of supernatant); type: in vitro ADME, rat
# Experimental: FIG. 9 is a series of traces and graphs showing membrane potential-dependent MitoSNAP mitochondrial uptake and NO^• generation. (a-d) Liver mitochondria were incubated in KCl medium supplemented with rotenone in a stirred 3 ml chamber and electrodes were used to measure the concentrations of O2 and NO^• simultaneously. Where indicated succinate (10 mM), OxyHb (5 μM) or FCCP (500 nM) were added. For (a) and (b) 2 mg mitochondrial protein/ml and 20 μM MitoSNAP (a) or SNAP (b) were used. For (c) and (d) 0.5 mg mitochondrial protein/ml and 5 μM MitoSNAP were used. There was no effect of 5 μM MitoNAP on respiration or NO^• production. All traces are from typical experiments repeated at least twice. […] Mitochondria were then pelleted by centrifugation (10,000×g) then aliquots of the supernatant (700 μl) were mixed with 700 μl 0.1% TFA and analyzed by RP-HPLC. The amount of MitoSNAP and MitoNAP were calculated as the percentage of their peak areas relative to the sum of both peak areas.
# MitoSNAP, MitoNAP and their derivatives were separated by reverse phase HPLC (RP-HPLC) on a C18 column (Jupiter 300 Å, Phenomenex) with a Widepore C18 guard column (Phenomenex), using a Gilson 321 pump. […] Peaks were detected at 220 nm using a Gilson UV/VIS 151 spectrophotometer. […]
# [2] = system: mice; assay: Cardiac ischemia-reperfusion injury in vivo (LAD occlusion); set-up: species or system mouse; details: 100 ng/kg into left ventricle 5 min prior to reperfusion, 30 min LAD occlusion, 24 h recovery
# Experimental: Male C57BL/6 mice (˜25 g) were purchased from the Jackson Laboratory and handled in accordance with the procedures of the University of Rochester Committee on Animal Research. All surgical procedures were sterile and performed as described previously. Briefly, analgesics (acetaminophen 0.75 mg/ml in drinking water) were administered 24 hr before, and during the perioperative period.
# Following anesthesia (Avertin, 2,2,2-tribromoethanol, […] IP) mice were intubated with a 20 gauge PE catheter which was connected to a rodent ventilator (Harvard MiniVent, 120 cycles/min., 0.3 ml tidal volume). A thoracotomy was performed and the left anterior descending coronary artery (LAD) was then ligated and occluded with a 9-0 proline suture for 30 min. MitoSNAP or MitoNAP (100 ng/kg) were dissolved in 0.9% NaCl saline (final volume 50 μl) and then administered 5 min prior to reperfusion into left ventricle (LV) using 30G½ needle. Reperfusion was initiated by removing the suture. The chest and skin were sutured closed, the endotracheal tube removed and the animal returned to its cage to recover. After 24 hrs. the animal was re-anesthetized, the LAD re-ligated, and Evans' blue dye (1.0% w/v, 1.5 ml) perfused via the LV. […] Slices were scanned and infarct/AR ratios determined with NIH ImageJ software.
smiles,measurement,setting,value
"CC(=O)NC(C(=O)NCCCCC[P+](c1ccccc1)(c1ccccc1)c1ccccc1)C(C)(C)SN=O.CS(=O)(=O)[O-] (stereo not drawn) [MitoSNAP, [5-(2-acetylamino-3-methyl-3-nitrosothio-butyrylamino)-penty1]-triphenylphosphonium methanesulfonate]",conversion of MitoSNAP to MitoNAP,[1]; energized mitochondria,rapidly consumed
same,conversion of MitoSNAP to MitoNAP,"[1]; unenergized mitochondria (FCCP), compared with energized",slower
same,protection against heart damage (infarct/area at risk),[2],Protects Against Cardiac Ischemia-Reperfusion Injury
